One data set has as its target T1, AChE E. eel (Electrophorus electricus, UniProt O42275).
T1 construct: purchased Sigma Chemical
Kind of data set: biochemical. The arrangement: species or system Electric Eel. The protocol: (§1) The incubation time between enzyme and product used for the determinations has been 10'.
(§2) The acetylcholinesterase from human erythrocytes (AChE hRBC), the acetylcholinesterase from Electric Eel (AChE E.eel) and the butyrylcholinesterase from human serum (BuChE hserum) coming from the Sigma Chemical have been used.

In a further data set the target is T2, AChE hRBC (Homo sapiens, UniProt P22303).
T2 construct: purchased Sigma Chemical; host or cells: human erythrocytes
T2 sequence (P22303 32-617 isoform P22303-2 limits assumed): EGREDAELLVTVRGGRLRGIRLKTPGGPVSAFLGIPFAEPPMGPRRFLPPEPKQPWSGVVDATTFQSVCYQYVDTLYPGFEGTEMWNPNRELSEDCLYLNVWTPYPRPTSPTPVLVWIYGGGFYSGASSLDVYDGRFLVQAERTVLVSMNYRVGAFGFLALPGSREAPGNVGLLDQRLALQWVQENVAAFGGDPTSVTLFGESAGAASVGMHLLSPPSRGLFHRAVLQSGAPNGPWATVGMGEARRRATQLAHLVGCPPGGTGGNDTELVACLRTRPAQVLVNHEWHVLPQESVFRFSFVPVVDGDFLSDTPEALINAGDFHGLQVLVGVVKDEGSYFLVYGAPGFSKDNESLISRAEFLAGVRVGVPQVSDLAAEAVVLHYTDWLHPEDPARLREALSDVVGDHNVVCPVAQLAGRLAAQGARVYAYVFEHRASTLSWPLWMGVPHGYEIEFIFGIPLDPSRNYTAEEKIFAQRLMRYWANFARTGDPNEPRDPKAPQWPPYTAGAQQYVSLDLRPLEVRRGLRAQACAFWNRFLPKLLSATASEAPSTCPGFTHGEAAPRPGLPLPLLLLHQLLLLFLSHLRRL
Kind of data set: biochemical. The note with it: for potency compared with eptastigmine, physostigmine or tacrine: comparison from Table 1; for AChE inhibitory activity and selectivity: AChE versus BuChE, Table 1. The protocol:
as §1, §2

A further data set concerns the target T3, BuChE hserum (Homo sapiens, UniProt P06276).
T3 construct: purchased Sigma Chemical; host or cells: human serum
Kind of data set: Inhibition of butyrylcholinesterase from human serum (Ellman method). The class given is biochemical. The settings on record: for activity on the BuChE: Table 1. The protocol:
as §1, §2
For orientation: Ellman's reagent forms a yellow product with free thiols.

The nature of data set [1]: Acute toxicity (single administration) in rat. The settings on record: in vivo.
[2] abbreviates: po, os, read-out: Toxicity tests (LD50), rat os.

Each structure is given as a SMILES string. Where two headings read alike, the source gives them in different places. Some results are limits rather than exact numbers.

T1 sequence (O42275 24-633): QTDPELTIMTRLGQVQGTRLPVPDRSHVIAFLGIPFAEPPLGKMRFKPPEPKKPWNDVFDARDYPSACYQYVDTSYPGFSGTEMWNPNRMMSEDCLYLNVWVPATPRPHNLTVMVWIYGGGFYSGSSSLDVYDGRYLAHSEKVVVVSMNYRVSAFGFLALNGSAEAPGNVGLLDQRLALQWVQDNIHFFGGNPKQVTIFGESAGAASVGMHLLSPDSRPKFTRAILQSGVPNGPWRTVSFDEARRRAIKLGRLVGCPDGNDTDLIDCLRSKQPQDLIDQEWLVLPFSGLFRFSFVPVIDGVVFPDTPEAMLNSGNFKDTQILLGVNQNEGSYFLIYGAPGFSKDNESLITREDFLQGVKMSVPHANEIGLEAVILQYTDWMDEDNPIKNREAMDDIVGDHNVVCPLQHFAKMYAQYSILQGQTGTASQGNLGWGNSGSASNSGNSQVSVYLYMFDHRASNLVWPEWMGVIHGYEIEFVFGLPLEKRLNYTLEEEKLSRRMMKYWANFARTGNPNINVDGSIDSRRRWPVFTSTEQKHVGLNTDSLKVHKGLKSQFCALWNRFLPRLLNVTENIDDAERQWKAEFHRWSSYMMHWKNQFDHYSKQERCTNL
T3 sequence (P06276 29-602): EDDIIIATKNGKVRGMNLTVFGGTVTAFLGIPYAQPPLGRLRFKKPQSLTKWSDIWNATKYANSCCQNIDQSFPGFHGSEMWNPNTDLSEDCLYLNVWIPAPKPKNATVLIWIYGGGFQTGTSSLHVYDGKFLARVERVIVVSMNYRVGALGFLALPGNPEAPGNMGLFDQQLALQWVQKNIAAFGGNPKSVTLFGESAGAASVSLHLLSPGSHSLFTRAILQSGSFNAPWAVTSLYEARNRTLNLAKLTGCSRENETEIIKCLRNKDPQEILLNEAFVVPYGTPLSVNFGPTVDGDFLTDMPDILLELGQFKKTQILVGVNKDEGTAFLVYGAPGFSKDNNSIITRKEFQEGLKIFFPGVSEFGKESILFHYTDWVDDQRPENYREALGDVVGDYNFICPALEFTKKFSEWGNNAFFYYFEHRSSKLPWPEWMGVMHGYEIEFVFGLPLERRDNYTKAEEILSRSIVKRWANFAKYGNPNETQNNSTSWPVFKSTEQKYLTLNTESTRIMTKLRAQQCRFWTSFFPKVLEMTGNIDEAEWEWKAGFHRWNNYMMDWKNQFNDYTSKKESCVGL

In general, IC50 refers to the concentration that gives 50% inhibition. Read a high IC50 as weaker potency in that assay. On to `C[C@H]1CN(CCCCCCCCNC(=O)Oc2cccc(C(C)(C)CN(C)C)c2)C[C@H](C)O1` (relative stereo) [Ex. 3, 3-[(1-dimethylamino-2-methyl)-prop-2-yl]-N-[8-[4-(trans 2,6-dimethyl)morpholinyl]octyl]-phenylcarbamate], for which the IC50 against AChE E. eel turned out to be 1200 nM; on AChE hRBC it was 200 nM; against BuChE hserum it was 20 nM.

Regarding `CCCCNC(=O)Oc1cccc(C(C)(C)CN(C)C)c1` [Ex. 4, 3-[(1-dimethylamino-2-methyl)prop-2-yl]-N-butylphenyl carbamate], the results for the IC50 against AChE E. eel, against AChE hRBC and on BuChE hserum were 250 nM, 130 nM and 1.6 nM, respectively. The “potency compared with eptastigmine, physostigmine or tacrine” value (from here on “potency compared with eptastigmine”) on AChE hRBC is on record as “equal or even superior to that of eptastigmine or of physostigmine”.

For `CCCCCCCNC(=O)Oc1cccc(C(C)(C)CN(C)C)c1` [Ex. 5, 3-[(1-dimethylamino-2-methyl)prop-2-yl]-N-heptyl-phenyl carbamate], the IC50 is 120 nM against AChE E. eel, 180 nM on AChE hRBC and 30 nM on BuChE hserum. For the same compound, at AChE hRBC, the “potency compared with eptastigmine” value is given as “equal or even superior to that of eptastigmine or of physostigmine”.

For `CC(CN(C)C)c1cccc(OC(=O)NCCCCCCCCN2CCOCC2)c1` (stereo not drawn) [Ex. 8, 3-[(1-dimethylamino)prop-2-yl]-N-[8-(4-morpholinyl)octyl]-phenyl carbamate], the figures for the IC50 at AChE E. eel, at AChE hRBC and against BuChE hserum were 1300 nM, 220 nM and 14 nM, respectively.

`COc1cc2nc(N3CCN(C(=O)CCCCCCCNC(=O)Oc4cccc(C(C)(C)CN(C)C)c4)CC3)nc(N)c2cc1OC` [Ex. 12, 3-[(1-dimethylamino-2-methyl)prop-2-yl]-N-[1-[4-(4-amino-6,7-dimethoxy)quinazolin-2-yl]piperazinyl]-8-octanoyl]-phenyl carbamate]: the IC50 against AChE E. eel came out at 17 nM; at AChE hRBC, 80 nM; at BuChE hserum, 50 nM. Moreover, the “potency compared with eptastigmine” value at AChE hRBC is reported as “equal or even superior to that of eptastigmine or of physostigmine”.

Take `COc1cc2nc(NCCCCCCCNC(=O)Oc3cccc(C(C)(C)CN(C)C)c3)nc(N)c2cc1OC` [Ex. 13, 3-[(1-dimethylamino-2-methyl)prop-2-yl]-N-[N-[(4-amino-6,7-dimethoxy)quinazolin-2-yl]aminoheptyl]-phenyl carbamate]: the figures for the IC50 against AChE E. eel, against AChE hRBC and on BuChE hserum were 23 nM, 15 nM and 28 nM, respectively. Besides, on AChE hRBC, the “potency compared with eptastigmine” value is recorded as “equal or even superior to that of eptastigmine or of physostigmine”.

As for `CN(Cc1ccccc1)CC(C)(C)c1cccc(OC(=O)NCCCCCCCCN2CCOCC2)c1` [Ex. 16, 3-[(1-(N-benzyl-N-methyl)amino-2-methyl)prop-2-yl]-N-[8-(4-morpholinyl)-octyl]-phenylcarbamate], the IC50 came out at 14000 nM on AChE E. eel, 4800 nM at AChE hRBC and 7 nM at BuChE hserum.

As for `CN(C)CC(C)(C)c1cccc(OC(=O)NCCCCCCCCCCN2CCOCC2)c1` [Ex. 18, 3-[(1-dimethylamino-2-methyl)prop-2-yl]-N-[10-(4-morpholinyl)decyl]-phenylcarbamate], at AChE hRBC, inhibition was half-maximal at 100 nM (IC50) and the “potency compared with eptastigmine” value was “equal or even superior to that of eptastigmine or of physostigmine”.

`CN(C)CC(C)(C)c1cccc(OC(=O)Nc2ccccc2)c1` [Ex. 19, 3-[1(1-dimethylamino-2-methyl)prop-2-yl]-N-phenyl phenylcarbamate]: on AChE hRBC, the 50% inhibitory concentration (IC50) worked out at 100 nM and the “potency compared with eptastigmine” value was “equal or even superior to that of eptastigmine or of physostigmine”. On BuChE hserum, this compound came in with an IC50 of 230 nM.

Take `CN(C)CC(C)(C)c1cccc(OC(=O)Nc2cccc(F)c2)c1` [Ex. 20, 3-[(1-dimethylamino-2-methyl)prop-2-yl]-N-(3-fluoro)phenyl phenylcarbamate]: at AChE hRBC, the IC50 turned out to be 220 nM; the “AChE inhibitory activity and selectivity” value is “potent and selective AChE inhibitory activity”. Besides, at BuChE hserum, the half-inhibitory concentration (IC50) is more than 100000 nM and the “activity on the BuChE” value is “poor activity on the BuChE”.

Regarding `Cc1cccc(NC(=O)Oc2cccc(C(C)(C)CN(C)C)c2)c1` [Ex. 21, 3-[(1-dimethylamino-2-methyl)prop-2-yl]-N-(3-methyl)phenyl phenylcarbamate], the results for the IC50 against AChE hRBC and against BuChE hserum were 600 nM and 500 nM, respectively.

In the case of `COc1cccc(NC(=O)Oc2cccc(C(C)(C)CN(C)C)c2)c1` [Ex. 22, 3-[(1-dimethylamino-2-methyl)prop-2-yl]-N-(3-methoxy)phenyl phenylcarbamate], the values for the IC50 against AChE hRBC and on BuChE hserum were 210 nM and 600 nM, respectively.

In the case of `CN(C)CC(C)(C)c1cccc(OC(=O)Nc2cccc(Cl)c2)c1` [Ex. 23, 3-[(1-dimethylamino-2-methyl)prop-2-yl]-N-(3-chloro)phenyl phenylcarbamate], at AChE hRBC, half-maximal inhibition (IC50) required 220 nM; the “AChE inhibitory activity and selectivity” value is “potent and selective AChE inhibitory activity”. Further, on BuChE hserum, the IC50 is more than 100000 nM and the “activity on the BuChE” value is reported as “poor activity on the BuChE”.

As for `CN(C)CC(C)(C)c1cccc(OC(=O)NCc2ccccc2)c1` [Ex. 24, 3-[(1-dimethylamino-2-methyl)prop-2-yl]-N-benzyl-phenylcarbamate], the IC50 at AChE hRBC worked out at 60 nM; against BuChE hserum, 1.3 nM. The “potency compared with eptastigmine” value at AChE hRBC is reported as “equal or even superior to that of eptastigmine or of physostigmine”.

As for `CN(C)CC(C)(C)c1cccc(OC(=O)N(C)c2cccc(Cl)c2)c1` [Ex. 26, 3-[(1-dimethylamino-2-methyl)prop-2-yl]-N-(3-chloro)-phenyl-N-methyl-phenylcarbamate], on AChE hRBC, the IC50 worked out at 400 nM; the “AChE inhibitory activity and selectivity” value is “potent and selective AChE inhibitory activity”. Further, at BuChE hserum, it took 220000 nM to reach half-maximal inhibition (IC50) and the “activity on the BuChE” value is reported as “poor activity on the BuChE”.

Take `CCCCN(C(=O)Oc1cccc(C(C)(C)CN(C)C)c1)c1ccccc1` [Ex. 32, 3-[(1-dimethylamino-2-methyl)prop-2-yl]-N-butyl-N-phenyl phenylcarbamate]: the results for the IC50 on AChE hRBC and against BuChE hserum were 420 nM and 70000 nM, respectively.

The LD50 is the dose expected to kill half of the subjects tested. As to `COc1ccc(N(C)C(=O)Oc2cccc(C(C)(C)CN(C)C)c2)cc1` [Ex. 35, 3-[(1-dimethylamino-2-methyl)prop-2-yl]-N-methyl-N-(4-methoxy)phenyl phenylcarbamate], on AChE hRBC, the IC50 amounted to 13 nM; the “AChE inhibitory activity and selectivity” value is “potent and selective AChE inhibitory activity”; the “potency compared with eptastigmine” value is “equal or even superior to that of eptastigmine or of physostigmine”. At BuChE hserum, the IC50 is more than 100000 nM and the “activity on the BuChE” value was “poor activity on the BuChE”. Further, in data set [1] (iv, read-out: Toxicity tests (LD50), rat iv), the LD50 was 3 mg/kg. For the same compound, the LD50 in data set [1] (setting [2]) amounted to 40 mg/kg.

On to `CCN(C(=O)Oc1cccc(C(C)(C)CN(C)C)c1)c1ccc(OC)cc1` [Ex. 36, 3-[(1-dimethylamino-2-methyl)prop-2-yl]-N-ethyl-N-(4-methoxy)phenyl phenylcarbamate], for which the IC50 against AChE hRBC turned out to be 1100 nM; against BuChE hserum, 21000 nM.

With `CN(C)CC(C)(C)c1cccc(OC(=O)N(C)c2ccc(Cl)cc2)c1` [Ex. 37, 3-[(1-dimethylamino-2-methyl)prop-2-yl]-N-(4-chloro)phenyl-N-methyl phenylcarbamate], on AChE hRBC, the IC50 worked out at 60 nM; the “AChE inhibitory activity and selectivity” value was “potent and selective AChE inhibitory activity”; the “potency compared with eptastigmine” value is given as “equal or even superior to that of eptastigmine or of physostigmine”. Further, on BuChE hserum, the IC50 was found to be 8000 nM and the “activity on the BuChE” value is “poor activity on the BuChE”.

On to `CN(C)CC(C)(C)c1cccc(OC(=O)N(C)c2cccc(F)c2)c1` [Ex. 38, 3-[(1-dimethylamino-2-methyl)prop-2-yl]-N-(3-fluoro)phenyl-N-methyl phenylcarbamate], for which, at AChE hRBC, the IC50 turned out to be 50 nM; the “AChE inhibitory activity and selectivity” value is “potent and selective AChE inhibitory activity”; the “potency compared with eptastigmine” value is “equal or even superior to that of eptastigmine or of physostigmine”. At BuChE hserum, the IC50 is more than 100000 nM and the “activity on the BuChE” value was “poor activity on the BuChE”. Further, the LD50 in data set [1] (setting [2]) is more than 40 mg/kg.

`CN(C)CC(C)(C)c1cccc(OC(=O)N(C)c2cccc(C(F)(F)F)c2)c1` [Ex. 39, 3-[(1-dimethylamino-2-methyl)prop-2-yl]-N-methyl-N-(3-trifluoromethyl) phenyl phenylcarbamate]: on AChE hRBC, the half-maximal inhibitory concentration (IC50) is 1100 nM; the “AChE inhibitory activity and selectivity” value is “potent and selective AChE inhibitory activity”. At BuChE hserum, the half-maximal inhibitory concentration (IC50) was more than 100000 nM and the “activity on the BuChE” value is “poor activity on the BuChE”.

On to `CN(C)CC(C)(C)c1cccc(OC(=O)N(C)C2CCCCC2)c1` [Ex. 40, 3-[(1-dimethylamino-2-methyl)prop-2-yl]-N-cyclohexyl-N-methyl phenylcarbamate], for which, at AChE hRBC, the half-inhibitory concentration (IC50) worked out at 180 nM; the “AChE inhibitory activity and selectivity” value is “potent and selective AChE inhibitory activity”; the “potency compared with eptastigmine” value is on record as “equal or even superior to that of eptastigmine or of physostigmine”. On BuChE hserum, the IC50 is more than 100000 nM and the “activity on the BuChE” value is given as “poor activity on the BuChE”. The LD50 in data set [1] (setting [2]) is more than 40 mg/kg.

The record behind these values is patent publication US5869484A, “Phenylcarbamate derivatives suitable to the use as anticholinesterase substances” (priority 1994, dated 1999).
